These are literature values, as cited in PMC3734799 (ChemMedChem, 2011).

The series concerns the target YopH (Yersinia pestis, UniProt O68720).

YopH, sequence (O68720 164-468 limits assumed): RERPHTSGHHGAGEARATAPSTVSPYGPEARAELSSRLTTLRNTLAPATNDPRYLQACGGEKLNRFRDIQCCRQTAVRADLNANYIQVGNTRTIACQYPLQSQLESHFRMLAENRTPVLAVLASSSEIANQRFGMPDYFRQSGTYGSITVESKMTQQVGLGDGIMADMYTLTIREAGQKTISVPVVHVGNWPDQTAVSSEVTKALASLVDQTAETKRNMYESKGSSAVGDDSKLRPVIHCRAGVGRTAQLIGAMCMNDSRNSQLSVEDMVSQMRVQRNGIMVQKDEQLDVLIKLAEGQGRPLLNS

As for `O=[N+]([O-])c1ccc(OP(=O)(O)O)cc1-c1ccccc1` [compound 1, 6-nitro-[1,1'-biphenyl]-3-yl dihydrogen phosphate], the Km is 80 µM.

What is called Km is the concentration of substrate that gives half-maximal velocity.
